# From patent publication US7608640B2, “Glycine betaine and its use” (priority 2001, dated 2009)
# Columns and labels:
# [1] = test system: arterial thrombosis induced by laser beam in the mesenteric microcirculation of the rat; test: Laser-induced thrombosis in the mesenteric microcirculation; format: in vivo
# From the text: A/Principle of Laser-induced Thrombosis (Seiffge D. et al., 1989; Weichter W. et al., 1983).
# In this model, lesion of the vascular wall is induced by a laser beam. This beam causes a limited lesion of the vascular endothelium (only 1 to 2 cells are destroyed). This laying bare of the sub-endothelium, which is a thrombogenetic surface, results in the adherence of platelets via […]. This adherence of platelets is followed by the activation thereof. They form pseudopods and secrete the content of their granules. This activation results in the appearance of glycoproteins IIb-IIIa which are necessary for the aggregation of the platelets between them. This lesion is induced in the mesenteric microcirculation of the rat. It is immediately followed by the formation of a thrombus (in a few seconds). This thrombus, which rapidly enlarges under the influence of the flow of blood, embolises before being formed again.
# By this manes, the assessment of the effect of glycine betaine was conducted pharmacologically in conjunction with the study of two active molecules used as a reference; namely acetylsalicylic acid and heparin (of low molecular weight). The assessment also involved the activity of glycine betaine in relation to the prothrombotic effects induced by contrasting products.
# Male Wistar rats were used for these tests. They weighed between 200 and 250 grams. After an 8-day stabilisation period, the rats were subjected to fasting for 12 hours. They were then anaesthetised, glycine betaine was administered subcutaneously, and the mesentery (laser) or vena cava (stasis) was opened at the end of the experiments.
# coagulation factors = test: Biological balance (Quick time, ACT, fibrinogen, α2AP, AT III); format: in vivo, rat
# bleeding time in rats = test: Induced haemorrhagic (bleeding) time, tail cut; format: in vivo, rat
# Procedure: Induced Haemorrahgic Time IHT
# (E. Dejana. Bleeding time in rats. Thrombosis. Rech. 1982) Blood samples are made before the test. The tail of anaesthetised rat, is dipped for 5 minutes in a water bath at 37° C. so as to provoke a dilatation of the peripheral vessels which are removed and cut at the end, the chronometer being started. The IHT is defined as being the time period comprised between the cutting of end tail and the end of the haemorrhage or bleeding. The end of haemorrhage is defined as the time where the last drop of blood is removed from the tail and no other drop is seen for 180 seconds. […]
# blood cells = test: Blood cell counts; format: in vivo, rat
# platelet aggregation = test: Whole blood platelet aggregation ex vivo (aggregometer); format: in vivo, rat; details: after laser firings
# Procedure: The aggregation is made in accordance to the methods of Cardinal & Flower. Pharmacol. Method. 1980, and to American Journal of Clinical Pathology, 1989; 92: 676-679, Sureney. J D. Whole Blood aggregometry. After a keeping period of 8 days, the rats are subjected to a fasting for 12 hours. […] The rats are then anaesthetised with sodium Thiopental administered at a dose of 200 mg/Kg and the blood samples are taken by intracardiac puncture on a trisodium citrate solution (1 volume of solution at 3.8% citrate for 9 volumes of blood).
# [2] = after laser firings and administration of contrasting products, alone or with glycine betaine 5 mg/kg
# [3] = contrasting products alone or with glycine betaine 5 mg/kg
# [4] = rat, after laser firings, glycine betaine 5 mg/kg, acetylsalicylic acid 100 mg/kg, heparin 2 mg/kg
# [5] = rat, glycine betaine 5 mg/kg, acetylsalicylic acid 100 mg/kg, heparin 2 mg/kg
smiles,measurement,setting,value
"C[C@H](O)C(=O)Nc1c(I)c(C(=O)NC(CO)CO)c(I)c(C(=O)NC(CO)CO)c1I [Iopamidol ®, Iopamidol]",Duration of embolisation,[1]; [2],6.33 ± 0.52 min
same,Number of emboles,[1]; [2],11.67 ± 0.50
same,ACT (Activated cephaline time),coagulation factors; [3],41.33 ± 0.8 s
same,AT III (Antithrombin III),coagulation factors; [3],70.6 ± 1.51%
same,Fibrinogen,coagulation factors; [3],1.5 ± 0.8 g/L
same,QT (Quick time),coagulation factors; [3],28.1 ± 0.75 s
same,"α2AP (Alpha,2-antiplasmin)",coagulation factors; [3],25.23 ± 0.95%
same,IBD (induced bleeding time),bleeding time in rats; [3],128 ± 7.64 s
same,Number of platelets,blood cells; [3],585.67 ± 23.54 10^9
same,Amplitude (platelet aggregation),platelet aggregation; [3],15 ± 2.64 ohm
same,Velocity (platelet aggregation),platelet aggregation; [3],12.33 ± 0.50 ohm/min
CC(=O)Oc1ccccc1C(=O)O [Acetylsalicylic acid],Duration of embolisation,[1]; [4],0.33 ± 0.58 min
same,Number of emboles or embolies,[1]; [4],1 ± 1
same,ACT (Activated cephaline time),coagulation factors; [5],27.26 ± 1.1 s
same,AT III (Antithrombin III),coagulation factors; [5],85.33 ± 3.51%
same,Fibrinogen,coagulation factors; [5],2.19 ± 0.33 g/L
same,QT (Quick time),coagulation factors; [5],18.33 ± 2.08 s
same,"α2AP (Alpha,2-antiplasmin)",coagulation factors; [5],29.36 ± 0.92%
same,Bleeding time,bleeding time in rats; [5],276.67 ± 20.82 s
same,Number of platelets,blood cells; [5],855.33 ± 63.17 10^9
same,Number of red corpuscles,blood cells; [5],6.15 ± 0.31 10^12
same,Number of white corpuscles,blood cells; [5],4.33 ± 1.00 10^9
same,Amplitude (platelet aggregation),platelet aggregation; [5],2.33 ± 2.08 ohms
same,Velocity (platelet aggregation),platelet aggregation; [5],2 ± 1 ohms/min
